Results published in paper PMC6928678, “Simplified Head-to-Tail Cyclic Polypeptides as Biomaterial-Associated Antimicrobials with Endotoxin Neutralizing and Anti-Inflammatory Capabilities” (International Journal of Molecular Sciences, 2019).
≈ marks a conversion by molar mass, not a printed value. Where a SMILES comes first, the peptide text is derived from it. [ ]: non-standard residue; d: D form. Orn = NCCC[C@H](N)C(=O)O

Assays:
S. aureus 25923 = test: microbe, parasite or virus in culture; format: cell-based, Staphylococcus aureus; conditions: 25923, 20 h
Protocol: (§1) The test strains, including Gram-negative E. coli ATCC25922, E. coli ATCC 1005, S. typhimurium C7731, P. aeruginosa ATCC 27853, S. Typhimurium 14028, Gram-positive S. aureus ATCC29213, S. aureus ATCC 25923, S. epidermidis ATCC 12228 and S. aureus 43300, were obtained from the School of Veterinary Medicine, Northeast Agricultural University (Harbin, China).
(§2) Briefly, the bacteria were incubated overnight at 37 °C with constant shaking at 220 rpm, then were transferred to new MH broth (MHB) medium until they reached the logarithmic phase of growth. The bacteria were then diluted to 10^5 (CFU)/mL in MHB. The peptides were dissolved and diluted in 0.01% acetic acid and 0.2% bovine serum albumin (BSA) at various concentrations (0.5–128 μM) in each well of sterile 96-well plates and incubated for 20 h at 37 °C. […] The test was repeated three times.

S. aureus 29213 = test: microbe, parasite or virus in culture; format: cell-based, Staphylococcus aureus; conditions: 29213, 20 h
Protocol: as §1, §2

MRSA43300 = test: microbe, parasite or virus in culture; format: cell-based, Methicillin-resistant Staphylococcus aureus; conditions: 20 h
Protocol: as §1, §2

P. aeruginosa 27853 = test: microbe, parasite or virus in culture; format: cell-based; conditions: 27853, 20 h; read-out: MIC
Protocol: as §1, §2

S. epidermidis 12228 = test: microbe, parasite or virus in culture; format: cell-based; conditions: 12228, 20 h
Protocol: as §1, §2

S. typhimurium 14028 = test: microbe, parasite or virus in culture; format: cell-based; conditions: 14028, 20 h
Protocol: as §1, §2

S. typhimurium 7731 = test: microbe, parasite or virus in culture; format: cell-based; conditions: 7731, 20 h
Protocol: as §1, §2

[1] = test system: gram-positive strains tested; test: organism not typed; format: cell-based; conditions: 20 h
Protocol: as §2

[2] = test system: lipopolysaccharide (LPS, derived from E. coli 055: B5); test: BODIPY-TR-cadaverine displacement assay (LPS binding)
Protocol: (§3) Figure 3 (A) The combining ability of OIR3 and gramicidin S (GS; 0.5 μM, 1 μM, 2 μM, […], 8 μM, 16 μM and 32 μM) with lipopolysaccharide (LPS). (B) SPR spectroscopy of the interaction kinetics of the peptides and LPS. The peptides were immobilized on a CM5 sensor chip as a ligand, and LPS was diluted in a series of concentrations (3.125, 6.25, 12.5, 25 and 50 μg/mL). Data shown are three independent experiments.
The BODIPY-TR-cadaverine (BC) displacement assay was previously used to quantify the binding affinities of test compounds to LPS [61]. The fluorescent dye BC is quenched by binding to LPS, causing its fluorescence to disappear. When the antimicrobial peptide is added, if the binding of the peptide to LPS is stronger, BODIPY-TR-cadaverine will be released and the fluorescence restored. Briefly, in a 96-well plate, an equal volume with a different concentration (0.5–64 μM) of peptide was added to a mixture (100 μL) of LPS (25 μg/mL) and BC (2.5 μg/mL) in Tris buffer (pH 7.4), and the background fluorescence was recorded (excitation wavelength 580 nm, emission wavelength 620 nm). The changes in fluorescence were recorded using a Tecan Infinite M200 PRO (Tecan, San Jose, CA, USA); polymyxin B was used as a positive control. Each test was performed independently, in triplicate.

LPS = test: Surface plasmon resonance of peptide-LPS interaction; format: binding; conditions: peptide on CM5 chip, LPS 3.125–50 µg/mL, 20 mM Tris, 100 mM NaCl, pH 7.4
Protocol: as §3
Surface plasmon resonance (SPR) is a method commonly used to study protein–protein interactions. The main advantage of SPR is that it provides the ability to measure the binding affinities and association/dissociation kinetics of complexes in real time, in a label-free environment, and using relatively small quantities of materials. Real-time binding interactions between peptides and LPS were measured by using the Biacore 3000 instrument (GE Healthcare, Waukesha, Wisconsin, USA). In […] sodium acetate buffer (pH 5.5), the cyclic antimicrobial peptides OIR3, IR3, DIR3 and GS were diluted to an optimum fixed concentration of 25.6 µM, and then covalently immobilized on the CM5 sensor chip; nearly 1100 resonant units (RU) of the peptide were captured. All measurements were performed in 20 mM Tris buffer (pH 7.4) containing 100 mM NaCl. […]

E. coli ATCC 25,922 [3] = test: Flow cytometry membrane integrity assay (PI uptake); format: cell-based; conditions: PI 10 ug/mL, 30 min at 4 °C
Protocol: Figure 7 Flow cytometric analysis. Exponential phase E. coli cells were treated with GS, OIR3 and cellular fluorescence was analyzed by flow cytometry.
Membrane integrity assay. […] FACS flow cytometer (Becton–Dickinson, Franklin Lake, New Jersey, USA USA) was used to obtain the data with a laser excitation wavelength of 488 nm.

E. coli ATCC 25,922 [4] = test: Swimming motility assay; format: cell-based; conditions: 0.3% agar; OIR3, IR3, DIR3 at 4 μM and 8 μM; GS at all tested concentrations (1–8 µM)
Protocol: Figure 10 Swimming motility of E. coli ATCC 25,922 treated with OIR3, IR3, DIR3 and GS. Swim plates were prepared using 0.3% agar and inoculated from overnight cultures standardized to an optical density at 600 nm of 1.0. Images were taken after 20 h incubation at 37 °C. Data shown are the mean ± SD of three independent experiments.
Since E. coli ATCC 25,922 cell walls have flagella, their swimming motility can be measured in LB medium containing 0.3% agar. E. coli ATCC 25,922 bacteria were incubated overnight at 37 °C in a shaker until the OD600 = 1.0, then inoculated into 0.3% agar medium containing 1 µM, 2 µM, 4 µM or 8 µM of antimicrobial peptide and incubated again overnight at 37 °C. The swimming motility for each was then measured; each experiment was repeated three times.

[5] = test system: oxazolone-induced ear edema; test: Oxazolone-induced skin inflammation (allergic dermatitis model); conditions: for ear thickness and ear punch weight: mice, topical 0.5%, 1% or 2% w/v on right ear, 24 h after treatment
Protocol: ICR mice (male, 4–6 weeks old, and 18–22 g) were obtained from the Experimental Animal Center of Harbin Medical University.
4-Ethoxymethylene-2-phenyl-2-oxazolin-5-one (oxazolone, OXA) was used to induce ear edema in mice [66]. […] The fur was clipped from each animal’s abdomen the day before the experiment was conducted. On the day of the experiment (day 0), 50 ul 3% oxazolone induction solution (prepared in a 5:1 (v/v) mixture of acetone: corn oil carrier) was applied to all mice as a single topical application to the shaved abdomen. After 5 days, 50 µL of 1% oxazolone challenge solution (prepared in acetone) was applied as a single topical application to the dorsal area of the right ear for 1 h. Of the peptide solution, vehicle control or positive control (dexamethasone) solution 20 µL was applied topically to the dorsal area of the right ear. The left ear was used as a control. 24 h later, the mice were euthanized by cervical dislocation under ether anesthesia, and two ear punches (6 mm, i.d.) were collected and weighed. The degree of edema and the increase in ear thickness were determined by the increase in the weight and thickness of the right ear punch when compared with that of the left ear.
(4) Ear weight increase %=[Right ear weight (mg)− Left ear weight (mg)]/Left ear weight (mg)× 100%
(5) Increase of the ear thickness% =Right ear thickness (mm)−Left ear thinkcess (mm)/Left ear thickness×100%
Mouse ear tissues were ground in liquid nitrogen and 1 mL of Trizol was added. The total RNA content in each group of ears was extracted using the conventional Trizol method. qRT-PCR was used to measure the mRNA level of inflammatory cytokines TNF-α, IL-6 and IL-1β in mouse ear tissues. One microgram total of RNA was reverse transcribed using M-MLV reverse transcriptase (Takara, Japan). qRT-PCR was performed using a SYBR Green Mix kit (Takara, Japan) with a 7500 Real-Time PCR system according to the manufacturer’s instructions. The mRNA expression levels were normalized to β-actin using the (2^−∆∆Ct) method. The gene expression was normalized to the corresponding mGAPDH level. […]

SMILES	MIC (S. aureus 25923)	MIC (S. aureus 29213)	MIC (MRSA43300)	MIC (P. aeruginosa 27853)	MIC (S. epidermidis 12228)	MIC (S. typhimurium 14028)	MIC (S. typhimurium 7731)	pGM (+), geometric mean of the MICs against gram-positive strains [1]	LPS-binding activity ([2]; 2 μM peptide, BODIPY-TR-cadaverine displacement, LPS 25 μg/mL, Tris buffer pH 7.4)	LPS neutralized (LPS-binding activity) ([2]; 4 μM peptide, BODIPY-TR-cadaverine displacement, LPS 25 μg/mL, Tris buffer pH 7.4)	binding of LPS to immobilized peptide (SPR) (LPS)	percentage of PI-positive cells (E. coli ATCC 25,922 [3]; 1/2× MIC (OIR3 1 µM, GS 2 µM))	percentage of PI-positive cells (E. coli ATCC 25,922 [3]; 1× MIC (OIR3 2 µM, GS 4 µM))	percentage of PI-positive cells (E. coli ATCC 25,922 [3]; 2× MIC (OIR3 4 µM, GS 8 µM))	inhibition of swimming motility (E. coli ATCC 25,922 [4])	ear thickness and ear punch weight [5]	expression of mRNA of TNF-α, IL-1β and IL-6 in mouse ear tissue ([5]; qRT-PCR, oxazolone-induced skin inflammation)	combining ability with LPS ([2]; all concentrations tested (0.5–32 μM))
CC[C@H](C)[C@@H]1NC(=O)[C@H](CCCNC(=N)N)NC(=O)[C@H]([C@@H](C)CC)NC(=O)[C@@H]2CCCN2C(=O)[C@H](CCCNC(=N)N)NC(=O)[C@H]([C@@H](C)CC)NC(=O)[C@H](CCCNC(=N)N)NC(=O)[C@H]([C@@H](C)CC)NC(=O)[C@H](CCCNC(=N)N)NC(=O)[C@H]([C@@H](C)CC)NC(=O)[C@@H]2CCCN2C(=O)[C@H](CCCNC(=N)N)NC(=O)[C@H]([C@@H](C)CC)NC(=O)[C@H](CCCNC(=N)N)NC1=O [OIR3] (cyclo(IRIRIRPIRIRIRP))	4 µM (≈ 7.24 µg/mL)	4 µM (≈ 7.24 µg/mL)	4 µM (≈ 7.24 µg/mL)	8 µM (≈ 14.5 µg/mL)	4 µM (≈ 7.24 µg/mL)	4 µM (≈ 7.24 µg/mL)	4 µM (≈ 7.24 µg/mL)	4.0 µM	81%	98%	rapidly binds	25%	62%	76.4%	significantly inhibit	significantly reduced	significantly down-regulated	–
CC(C)C[C@@H]1NC(=O)[C@H](CCCN)NC(=O)[C@H](C(C)C)NC(=O)[C@@H]2CCCN2C(=O)[C@@H](Cc2ccccc2)NC(=O)[C@H](CC(C)C)NC(=O)[C@H](CCCN)NC(=O)[C@H](C(C)C)NC(=O)[C@@H]2CCCN2C(=O)[C@@H](Cc2ccccc2)NC1=O [GS, gramicidin S, reference compound] (cyclo(V[Orn]L[dF]PV[Orn]L[dF]P))	2 µM (≈ 2.28 µg/mL)	2 µM (≈ 2.28 µg/mL)	2 µM (≈ 2.28 µg/mL)	4 µM (≈ 4.57 µg/mL)	2 µM (≈ 2.28 µg/mL)	16 µM (≈ 18.3 µg/mL)	8 µM (≈ 9.13 µg/mL)	2 µM	–	–	weak binding to LPS at high concentrations and almost no binding at the low concentrations	7.3%	37.8%	93.3%	almost no inhibition	increased	–	relatively low
